The target of assay [1] is Prostaglandin G/H synthase 1 (Homo sapiens, UniProt P23219). Briefly: Inhibition of COX1 assessed as TBX2 production in human whole blood. Type of assay: functional, tissue-based.
Assay [2] addresses T1, Prostaglandin G/H synthase 1 (Ovis aries, UniProt P05979).
T1 sequence (P05979 whole entry): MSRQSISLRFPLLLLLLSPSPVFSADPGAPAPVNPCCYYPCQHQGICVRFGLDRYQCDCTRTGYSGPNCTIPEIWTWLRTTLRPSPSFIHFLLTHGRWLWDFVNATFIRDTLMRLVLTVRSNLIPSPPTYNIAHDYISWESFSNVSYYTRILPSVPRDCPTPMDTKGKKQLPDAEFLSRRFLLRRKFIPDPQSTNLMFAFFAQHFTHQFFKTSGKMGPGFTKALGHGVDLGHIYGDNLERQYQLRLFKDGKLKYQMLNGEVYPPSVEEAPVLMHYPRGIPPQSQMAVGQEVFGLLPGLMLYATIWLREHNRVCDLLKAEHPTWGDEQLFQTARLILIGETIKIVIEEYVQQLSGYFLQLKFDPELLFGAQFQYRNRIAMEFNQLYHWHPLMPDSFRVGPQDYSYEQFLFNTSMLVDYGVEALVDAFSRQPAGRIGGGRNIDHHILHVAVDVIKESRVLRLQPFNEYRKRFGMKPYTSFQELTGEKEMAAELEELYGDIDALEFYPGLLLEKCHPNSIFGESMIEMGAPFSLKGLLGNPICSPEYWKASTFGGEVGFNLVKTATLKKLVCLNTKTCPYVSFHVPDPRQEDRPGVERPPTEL

The IC50 is the concentration at which inhibition is half-maximal.

SMILES strings stand for the structures.

Chain of Prostaglandin G/H synthase 1 (Homo sapiens, UniProt P23219) (P23219 whole entry): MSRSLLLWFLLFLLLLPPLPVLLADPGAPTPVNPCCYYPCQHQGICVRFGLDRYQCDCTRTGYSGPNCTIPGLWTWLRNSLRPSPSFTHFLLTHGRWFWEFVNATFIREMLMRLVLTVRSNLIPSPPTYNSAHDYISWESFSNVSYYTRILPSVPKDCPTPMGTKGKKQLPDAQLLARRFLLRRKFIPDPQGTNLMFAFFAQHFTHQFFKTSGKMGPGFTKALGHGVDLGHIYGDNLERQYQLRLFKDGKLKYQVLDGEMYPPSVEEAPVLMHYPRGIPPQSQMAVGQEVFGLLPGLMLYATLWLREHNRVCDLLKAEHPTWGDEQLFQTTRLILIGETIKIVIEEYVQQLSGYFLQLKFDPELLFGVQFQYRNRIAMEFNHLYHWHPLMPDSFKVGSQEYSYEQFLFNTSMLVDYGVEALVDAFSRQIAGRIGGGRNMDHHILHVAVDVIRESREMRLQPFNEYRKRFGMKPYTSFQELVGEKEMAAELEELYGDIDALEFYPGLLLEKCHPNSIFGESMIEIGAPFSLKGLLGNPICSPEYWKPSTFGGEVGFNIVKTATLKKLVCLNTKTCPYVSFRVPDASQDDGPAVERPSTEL

In the case of `CN(C)c1ccc(/N=N/c2ccc(S(N)(=O)=O)cc2)cc1`, in assay [1], the IC50 is more than 100 µM.

For `NS(=O)(=O)c1ccc(/N=N/c2ccc(O)c(C(=O)O)c2)cc1` [SALAZOSULFAMIDE], the IC50 in assay [1] turned out to be 31.6 µM; in assay [2], 29.3 µM.

For `CC(C)c1ccc(NC(=O)Oc2ccc(/N=N/c3ccc(S(N)(=O)=O)cc3)cc2OC(=O)Nc2ccc(C(C)C)cc2)cc1`, the concentration for half-maximal inhibition (IC50) in assay [1] is 26.3 µM.

For `NS(=O)(=O)c1ccc(/N=N/c2ccc(O)c(Cl)c2)cc1`, the IC50 in assay [1] was 33.3 µM.

Take `NS(=O)(=O)c1ccc(/N=N/c2ccc(O)c(O)c2)cc1`: in assay [1], the IC50 was 60 µM.

On to `CSc1cc(N)ccc1/N=N/c1ccc(S(N)(=O)=O)cc1`, for which the half-maximal inhibitory concentration (IC50) in assay [1] stood at 23.3 µM; in assay [2], 34.1 µM.

On to `NS(=O)(=O)c1ccc(/N=N/c2ccc(OC(=O)Nc3ccccc3)c(OC(=O)Nc3ccccc3)c2)cc1`, for which the IC50 in assay [1] was 35.1 µM.

Consider `COc1ccc(/N=N/c2ccc(S(N)(=O)=O)cc2)cc1`, for which, in assay [1], the IC50 is more than 100 µM.

For `COc1cc(/N=N/c2ccc(S(N)(=O)=O)cc2)ccc1O`, the IC50 in assay [1] is more than 100 µM.

For the molecule `NS(=O)(=O)c1ccc(/N=N/c2ccc(O)cc2)cc1`, the IC50 in assay [1] is more than 100 µM.

On to `COc1ccc(/N=N/c2ccc(S(N)(=O)=O)cc2)cc1O`, for which, in assay [1], the IC50 was 66.4 µM.

In turn, `Oc1ccc(/C=C/c2cc(O)cc(O)c2)cc1` [RESVERATROL] gave an IC50 in assay [2] of 0.38 µM.

As to `COc1ccc(/N=N/c2ccc(S(N)(=O)=O)cc2)cc1OC`, the IC50 was 61.7 µM in assay [1] and more than 100 µM in assay [2].

Values taken from ChEMBL document CHEMBL1149501, “Selective COX-2 inhibitors. Part 1: synthesis and biological evaluation of phenylazobenzenesulfonamides” (Bioorg Med Chem Lett, 2006).
